Assay [1] relates to A549 (human lung carcinoma) cells. The experiment in a line: Cell Viability Assay (CellTiter-Glo), A549. The settings on record: Homo sapiens, A549, 72 h. Format: cell-based. In a few lines:
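RPMI 1640/10% FBS; seed 1.67E+04 cells/mL, o/n 37° C., 5% CO2; serial-dilution cmpd 72 h; CellTiter-Glo luminescence vs DMSO; 4-parameter logistic fit → IC50.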
(ATP-based viability assays read luminescence as a measure of living cells.)

The next assay concerns the target KRAS G12C (Homo sapiens (Human), UniProt P01116, C118A/G12C). The experiment in a line: 2 h coupled exchange assay. Format: biochemical. The conditions noted are these: Avg 2 h Coupled exchange IC50, 2 h compound pre-incubation. Here is the method: The term “2 h coupled exchange assay” or “20 h coupled exchange assay” as used herein refers to the assay described in the Section entitled “BIOLOGICAL EVALUATION.”

In assay [2] the test system is MIA PaCa-2 (human pancreatic carcinoma) cells. The experiment in a line: Cell Viability Assay (CellTiter-Glo), MIA PaCa-2. Format: cell-based. The settings on record: Homo sapiens, MIA PaCa-2, 72 h. Here is the method:
Serially-diluted compound or DMSO was added to the cells, and plates were incubated at 37° C., 5% CO2 for 72 h. Cell viability was measured using a CellTiter-Glo® Luminescent Cell Viability Assay kit (Promega) according to the manufacturer's protocol. The luminescence signal of treated samples was normalized to DMSO control, and data were analyzed using a 4-parameter logistic model to calculate IC50 values.

Setting [3] is: SOS-mediated nucleotide exchange.

Some results are limits rather than exact numbers.

Chain of KRAS G12C (P01116 other isoform, or with tags, fused parts or gaps G12C/C118A): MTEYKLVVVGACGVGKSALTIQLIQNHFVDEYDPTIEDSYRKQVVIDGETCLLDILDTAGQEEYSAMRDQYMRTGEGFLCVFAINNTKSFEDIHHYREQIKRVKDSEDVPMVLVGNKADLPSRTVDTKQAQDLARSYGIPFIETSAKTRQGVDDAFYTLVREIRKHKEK

Take `C=CC(=O)N1CC2(CCN(c3nc4c(c(-c5c(C)cc(F)c6[nH]ncc56)c3C#N)C[C@H]3C[C@@H]4C3(C)C)C2)C1` [Example 12-11, (1R,9R)-6-(7-fluoro-5-methyl-1H-indazol-4-yl)-10,10-dimethyl-4-(2-(2-propenoyl)-2,6-diazaspiro[3.4]octan-6-yl)-3-azatricyclo[7.1.1.0^2,7] undeca-2,4,6-triene-5-carbonitrile]: the IC50 – broadly, the midpoint of a concentration-inhibition curve – in assay [1] was 3780 nM; on KRAS G12C (setting [3]), 36 nM; in assay [2], 20 nM.
The like results for `C=CC(=O)N1CC2(CCN(c3nc4c(N5CCCC5)ccn4c(-c4c(C)ccc5[nH]ncc45)c3C#N)C2)C1` [Example 1-52] were, in that order, 39000 nM, 244 nM and 1890 nM.
Regarding `C=CC(=O)N1CC2(CCN(c3nc4cc(-c5scnc5CO)ccc4c(-c4ccccc4F)c3C#N)C2)C1` [Example 20-18, 4-(2-fluorophenyl)-7-(4-(hydroxymethyl)-1,3-thiazol-5-yl)-2-(2-(2-propenoyl)-2,6-diazaspiro[3.4]octan-6-yl)-3-quinolinecarbonitrile], the results for the IC50 (in assay [1]; on KRAS G12C; in assay [2]) were above 5000 nM, 95 nM and 651 nM, respectively.
For `C=CC(=O)N1CC2(CCN(c3nc4c(c(-c5cccc(C)c5C)n3)CC[C@H](c3scnc3C)C4)C2)C1` (single isomer, unassigned) [Example 22-2], the IC50 in assay [1] was above 25000 nM; against KRAS G12C, 701 nM; in assay [2] it was 5270 nM.
In the case of `C=CC(=O)N1CC2(CCN(c3nc4c(c(-c5cccc(Cl)c5Cl)n3)CCCC4)C2)C1` [Example 1-24, 1-(6-(4-(2,3-dichlorophenyl)-5,6,7,8-tetrahydro-2-quinazolinyl)-2,6-diazaspiro[3.4]octan-2-yl)-2-propen-1-one], the IC50 is 10600 nM in assay [1], 4250 nM at KRAS G12C (setting [3]) and 8290 nM in assay [2].
`C=CC(=O)N1CC2(CCN(c3nc4c(c(-c5c(F)cccc5Cl)c3C#N)CCC(c3scnc3C)=C4)C2)C1` [Example 23-22, 4-(2-chloro-6-fluorophenyl)-7-(4-methyl-1,3-thiazol-5-yl)-2-(2-(2-propenoyl)-2,6-diazaspiro[3.4]octan-6-yl)-5,6-dihydro-3-quinolinecarbonitrile]: the values for the IC50 (in assay [1]; against KRAS G12C; in assay [2]) were above 5000 nM, 182 nM and 725 nM, respectively.
`C=CC(=O)N1CC2(CCN(c3nc4c(c(-c5c(C)ccn6cncc56)c3C#N)C[C@H]3C[C@@H]4C3(C)C)C2)C1` [Example 12-19, (1R,9R)-10,10-dimethyl-6-(7-methylimidazo[1,5-a]pyridin-8-yl)-4-(2-(2-propenoyl)-2,6-diazaspiro[3.4]octan-6-yl)-3-azatricyclo[7.1.1.0^2,7] undeca-2,4,6-triene-5-carbonitrile]: the IC50 stood at 3740 nM in assay [1], 37 nM on KRAS G12C (setting [3]) and 18 nM in assay [2].
For the compound `C=CC(=O)N1CC2(CCN(c3nc4c(c(-c5cccc(O)c5F)c3C#N)CCN(c3scnc3C)C4)C2)C1` [Example 35-1, 4-(2-fluoro-3-hydroxyphenyl)-7-(4-methyl-1,3-thiazol-5-yl)-2-(2-(2-propenoyl)-2,6-diazaspiro[3.4]octan-6-yl)-5,6,7,8-tetrahydro-1,7-naphthyridine-3-carbonitrile], the IC50 in assay [1] was above 5000 nM; against KRAS G12C it was 67 nM; in assay [2] it was above 5000 nM.
Regarding `C=CC(=O)N1CC2(CCN(c3nc4c(c(-c5c(C)ccc6[nH]ncc56)c3C)CCC(C)(C)C4)C2)C1` (single isomer, unassigned) [Example 2-11, (P)-1-(6-(3,7,7-trimethyl-4-(5-methyl-1H-indazol-4-yl)-5,6,7,8-tetrahydro-2-quinolinyl)-2,6-diazaspiro[3.4]octan-2-yl)-2-propen-1-one], the IC50 turned out to be 6750 nM in assay [1], 27 nM against KRAS G12C (setting [3]) and 53 nM in assay [2].

These data come from patent US20240059703A1 (AMGEN INC., priority 2021, published 2024).
